Experiments:
Assay in all cases: biochemical
[1] = target: T1, NK2 (h) (Homo sapiens, UniProt P21452); design: CEREP ExpresSProfile competition binding, remaining control specific binding of reference compound; settings: radioligand binding; read-out: Mean % of control specific binding (±sd)
T1 construct: gene TACR2

[2] = target: T2, 5-HT1B (Rattus norvegicus, UniProt P28564); design: CEREP ExpresSProfile competition binding, remaining control specific binding of reference compound; settings: radioligand binding; read-out: Mean % of control specific binding (±sd)
T2 construct: gene Htr1b; rat cerebral cortex

[3] = target: CCR1 (h) (Homo sapiens, UniProt P32246); design: CEREP ExpresSProfile competition binding, remaining control specific binding of reference compound; settings: radioligand binding; read-out: Mean % of control specific binding (±sd)
[4] = target: T3, NOP (ORL1) (h) (Homo sapiens, UniProt P41146); design: CEREP ExpresSProfile competition binding, remaining control specific binding of reference compound; settings: radioligand binding; read-out: Mean % of control specific binding (±sd)
T3 construct: gene OPRL1

[5] = target: T4, 5-HT1A (h) (Homo sapiens, UniProt P08908); design: CEREP ExpresSProfile competition binding, remaining control specific binding of reference compound; settings: radioligand binding; read-out: Mean % of control specific binding (±sd)
T4 construct: gene HTR1A

[6] = target: T5, beta 1 (h) (Homo sapiens, UniProt P08588); design: CEREP ExpresSProfile competition binding, remaining control specific binding of reference compound; settings: radioligand binding; read-out: Mean % of control specific binding (±sd)
T5 construct: gene ADRB1

[7] = target: T6, AT1 (h) (Homo sapiens, UniProt P30556); design: CEREP ExpresSProfile competition binding, remaining control specific binding of reference compound; settings: radioligand binding; read-out: Mean % of control specific binding (±sd)
T6 construct: gene AGTR1

[8] = target: T7, MKK1 (Homo sapiens, UniProt Q02750); design: Dundee MRC-PPU Express kinase screen, remaining kinase activity; settings: read-out: Mean % of remaining kinase activity (±sd)
T7 construct: gene MAP2K1

[9] = target: T8, MLK3 (Homo sapiens, UniProt Q16584); design: Dundee MRC-PPU Express kinase screen, remaining kinase activity; settings: read-out: Mean % of remaining kinase activity (±sd)
T8 construct: gene MAP3K11
T8 sequence (Q16584 whole entry): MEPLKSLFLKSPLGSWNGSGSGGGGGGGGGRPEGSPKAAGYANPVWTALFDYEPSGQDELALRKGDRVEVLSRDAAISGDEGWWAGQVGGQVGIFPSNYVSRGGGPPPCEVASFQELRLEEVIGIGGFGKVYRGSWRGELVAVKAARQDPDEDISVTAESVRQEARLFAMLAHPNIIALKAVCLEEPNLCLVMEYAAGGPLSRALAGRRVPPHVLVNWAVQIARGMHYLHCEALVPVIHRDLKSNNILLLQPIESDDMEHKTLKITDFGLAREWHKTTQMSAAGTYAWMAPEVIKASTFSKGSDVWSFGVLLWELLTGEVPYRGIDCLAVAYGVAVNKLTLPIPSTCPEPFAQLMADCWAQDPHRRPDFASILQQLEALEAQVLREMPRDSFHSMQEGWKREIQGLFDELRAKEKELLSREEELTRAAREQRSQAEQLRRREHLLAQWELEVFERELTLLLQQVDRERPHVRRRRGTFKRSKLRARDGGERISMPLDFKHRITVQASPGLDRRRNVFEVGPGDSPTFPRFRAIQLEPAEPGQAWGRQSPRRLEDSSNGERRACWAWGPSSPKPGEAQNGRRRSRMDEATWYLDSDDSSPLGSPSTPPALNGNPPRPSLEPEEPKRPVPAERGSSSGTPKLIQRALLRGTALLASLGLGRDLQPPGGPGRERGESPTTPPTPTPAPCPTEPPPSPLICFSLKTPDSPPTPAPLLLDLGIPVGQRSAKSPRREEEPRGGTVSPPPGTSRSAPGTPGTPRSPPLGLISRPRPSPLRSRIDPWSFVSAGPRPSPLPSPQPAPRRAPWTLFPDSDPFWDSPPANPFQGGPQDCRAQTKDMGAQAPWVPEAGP

[10] = target: MARK3 (Homo sapiens, UniProt P27448); design: Dundee MRC-PPU Express kinase screen, remaining kinase activity; settings: read-out: Mean % of remaining kinase activity (±sd)
[11] = target: RIPK2 (Homo sapiens, UniProt O43353); design: Dundee MRC-PPU Express kinase screen, remaining kinase activity; settings: read-out: Mean % of remaining kinase activity (±sd)
[12] = target: T9, MSK1 (Homo sapiens, UniProt O75582); design: Dundee MRC-PPU Express kinase screen, remaining kinase activity; settings: read-out: Mean % of remaining kinase activity (±sd)
T9 construct: gene RPS6KA5

[13] = target: T10, p38a MAPK (Homo sapiens, UniProt Q16539); design: Dundee MRC-PPU Express kinase screen, remaining kinase activity; settings: read-out: Mean % of remaining kinase activity (±sd)
T10 construct: gene MAPK14
T10 sequence (Q16539 whole entry): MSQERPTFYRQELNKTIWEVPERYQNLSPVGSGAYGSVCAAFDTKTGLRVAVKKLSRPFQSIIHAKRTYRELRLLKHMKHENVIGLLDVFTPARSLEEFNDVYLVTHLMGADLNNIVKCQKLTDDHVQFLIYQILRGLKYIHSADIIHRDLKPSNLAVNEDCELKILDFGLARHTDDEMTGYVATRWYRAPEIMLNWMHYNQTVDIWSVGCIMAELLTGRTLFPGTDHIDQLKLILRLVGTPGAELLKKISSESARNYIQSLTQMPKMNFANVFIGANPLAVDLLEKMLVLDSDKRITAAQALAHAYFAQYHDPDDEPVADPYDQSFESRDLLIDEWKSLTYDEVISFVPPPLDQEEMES

[14] = target: T11, PDK1 (Homo sapiens, UniProt O15530); design: Dundee MRC-PPU Express kinase screen, remaining kinase activity; settings: read-out: Mean % of remaining kinase activity (±sd)
T11 construct: gene PDPK1

[15] = target: PIM1 (Homo sapiens, UniProt P11309); design: Dundee MRC-PPU Express kinase screen, remaining kinase activity; settings: read-out: Mean % of remaining kinase activity (±sd)
[16] = target: T12, CHK2 (Homo sapiens, UniProt O96017); design: Dundee MRC-PPU Express kinase screen, remaining kinase activity; settings: read-out: Mean % of remaining kinase activity (±sd)
T12 construct: gene CHEK2

[17] = target: SYK (Homo sapiens, UniProt P43405); design: Dundee MRC-PPU Express kinase screen, remaining kinase activity; settings: read-out: Mean % of remaining kinase activity (±sd)
[18] = target: T13, HER4 (Homo sapiens, UniProt Q15303); design: Dundee MRC-PPU Express kinase screen, remaining kinase activity; settings: read-out: Mean % of remaining kinase activity (±sd)
T13 construct: gene ERBB4
T13 sequence (Q15303 whole entry): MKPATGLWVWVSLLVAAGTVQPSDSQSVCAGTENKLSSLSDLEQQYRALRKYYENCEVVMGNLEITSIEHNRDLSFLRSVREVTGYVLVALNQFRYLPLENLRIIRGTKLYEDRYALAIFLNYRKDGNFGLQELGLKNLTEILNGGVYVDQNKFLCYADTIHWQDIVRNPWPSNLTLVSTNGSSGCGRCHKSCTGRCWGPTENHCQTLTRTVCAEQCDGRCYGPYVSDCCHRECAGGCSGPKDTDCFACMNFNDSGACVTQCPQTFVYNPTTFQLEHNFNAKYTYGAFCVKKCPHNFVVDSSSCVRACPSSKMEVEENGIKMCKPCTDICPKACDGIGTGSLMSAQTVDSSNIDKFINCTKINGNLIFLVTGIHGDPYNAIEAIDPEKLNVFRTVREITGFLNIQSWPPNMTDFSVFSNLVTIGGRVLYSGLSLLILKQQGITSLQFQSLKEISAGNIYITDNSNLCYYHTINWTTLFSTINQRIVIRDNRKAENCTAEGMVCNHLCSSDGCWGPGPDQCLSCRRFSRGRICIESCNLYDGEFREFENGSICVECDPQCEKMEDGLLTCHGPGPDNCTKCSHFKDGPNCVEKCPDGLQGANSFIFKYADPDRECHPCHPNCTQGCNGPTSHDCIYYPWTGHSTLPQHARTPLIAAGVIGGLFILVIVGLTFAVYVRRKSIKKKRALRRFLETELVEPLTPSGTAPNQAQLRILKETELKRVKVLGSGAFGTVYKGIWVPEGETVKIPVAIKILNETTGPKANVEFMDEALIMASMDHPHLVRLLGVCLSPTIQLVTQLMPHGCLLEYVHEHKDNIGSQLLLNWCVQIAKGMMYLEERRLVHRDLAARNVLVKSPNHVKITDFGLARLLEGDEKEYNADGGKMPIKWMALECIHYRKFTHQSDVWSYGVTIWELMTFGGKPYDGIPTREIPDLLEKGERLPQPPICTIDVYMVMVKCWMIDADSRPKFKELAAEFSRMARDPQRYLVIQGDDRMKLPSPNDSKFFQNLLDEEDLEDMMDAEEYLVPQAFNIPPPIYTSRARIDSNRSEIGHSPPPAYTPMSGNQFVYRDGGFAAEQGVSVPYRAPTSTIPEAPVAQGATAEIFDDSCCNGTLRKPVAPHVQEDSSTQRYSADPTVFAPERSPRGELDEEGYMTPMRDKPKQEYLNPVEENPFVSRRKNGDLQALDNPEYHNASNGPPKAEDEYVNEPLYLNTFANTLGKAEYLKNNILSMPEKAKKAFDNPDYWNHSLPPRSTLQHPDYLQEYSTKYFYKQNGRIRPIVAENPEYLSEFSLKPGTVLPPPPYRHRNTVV

[19] = target: T14, MST2 (Homo sapiens, UniProt Q13188); design: Dundee MRC-PPU Express kinase screen, remaining kinase activity; settings: read-out: Mean % of remaining kinase activity (±sd)
T14 construct: gene STK3

[20] = target: T15, PKBa (Homo sapiens, UniProt P31749); design: Dundee MRC-PPU Express kinase screen, remaining kinase activity; settings: read-out: Mean % of remaining kinase activity (±sd)
T15 construct: gene AKT1

[21] = target: T16, LKB1 (Homo sapiens, UniProt Q15831); design: Dundee MRC-PPU Express kinase screen, remaining kinase activity; settings: read-out: Mean % of remaining kinase activity (±sd)
T16 construct: gene STK11

[22] = target: T17, PKD1 (Homo sapiens, UniProt Q15139); design: Dundee MRC-PPU Express kinase screen, remaining kinase activity; settings: read-out: Mean % of remaining kinase activity (±sd)
T17 construct: gene PRKD1
T17 sequence (Q15139 whole entry): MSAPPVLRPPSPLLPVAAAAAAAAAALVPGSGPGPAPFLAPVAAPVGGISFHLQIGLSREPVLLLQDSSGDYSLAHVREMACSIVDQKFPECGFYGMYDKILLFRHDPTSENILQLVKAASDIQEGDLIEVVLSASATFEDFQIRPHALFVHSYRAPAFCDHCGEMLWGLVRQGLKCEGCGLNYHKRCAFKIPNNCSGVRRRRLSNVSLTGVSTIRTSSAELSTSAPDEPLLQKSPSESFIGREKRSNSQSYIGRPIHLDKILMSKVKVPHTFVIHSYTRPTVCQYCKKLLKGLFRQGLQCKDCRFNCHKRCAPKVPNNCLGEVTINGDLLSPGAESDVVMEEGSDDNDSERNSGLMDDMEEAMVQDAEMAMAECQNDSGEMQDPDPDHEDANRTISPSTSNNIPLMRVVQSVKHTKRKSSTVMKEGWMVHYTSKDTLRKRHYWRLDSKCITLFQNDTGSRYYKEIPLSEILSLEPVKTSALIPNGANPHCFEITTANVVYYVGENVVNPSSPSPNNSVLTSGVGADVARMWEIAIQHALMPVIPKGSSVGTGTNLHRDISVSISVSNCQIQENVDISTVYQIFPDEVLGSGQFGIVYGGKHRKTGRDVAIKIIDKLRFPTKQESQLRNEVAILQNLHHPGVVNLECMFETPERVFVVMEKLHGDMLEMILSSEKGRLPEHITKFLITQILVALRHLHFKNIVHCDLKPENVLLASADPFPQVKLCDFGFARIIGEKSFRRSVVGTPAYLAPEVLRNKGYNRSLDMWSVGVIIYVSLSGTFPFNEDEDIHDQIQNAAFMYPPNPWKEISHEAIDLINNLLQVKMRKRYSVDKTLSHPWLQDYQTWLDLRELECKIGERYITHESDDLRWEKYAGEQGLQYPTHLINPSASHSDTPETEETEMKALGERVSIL

[23] = target: T18, PKCa (Homo sapiens, UniProt P17252); design: Dundee MRC-PPU Express kinase screen, remaining kinase activity; settings: read-out: Mean % of remaining kinase activity (±sd)
T18 construct: gene PRKCA

[24] = target: T19, CK2 (Homo sapiens, UniProt P68400); design: Dundee MRC-PPU Express kinase screen, remaining kinase activity; settings: read-out: Mean % of remaining kinase activity (±sd)
T19 construct: gene CSNK2A1

[25] = target: T20, CAMKKb (Homo sapiens, UniProt Q96RR4); design: Dundee MRC-PPU Express kinase screen, remaining kinase activity; settings: read-out: Mean % of remaining kinase activity (±sd)
T20 construct: gene CAMKK2

[26] = target: T21, TrkA (Homo sapiens, UniProt P04629); design: Dundee MRC-PPU Express kinase screen, remaining kinase activity; settings: read-out: Mean % of remaining kinase activity (±sd)
T21 construct: gene NTRK1
T21 sequence (P04629 whole entry): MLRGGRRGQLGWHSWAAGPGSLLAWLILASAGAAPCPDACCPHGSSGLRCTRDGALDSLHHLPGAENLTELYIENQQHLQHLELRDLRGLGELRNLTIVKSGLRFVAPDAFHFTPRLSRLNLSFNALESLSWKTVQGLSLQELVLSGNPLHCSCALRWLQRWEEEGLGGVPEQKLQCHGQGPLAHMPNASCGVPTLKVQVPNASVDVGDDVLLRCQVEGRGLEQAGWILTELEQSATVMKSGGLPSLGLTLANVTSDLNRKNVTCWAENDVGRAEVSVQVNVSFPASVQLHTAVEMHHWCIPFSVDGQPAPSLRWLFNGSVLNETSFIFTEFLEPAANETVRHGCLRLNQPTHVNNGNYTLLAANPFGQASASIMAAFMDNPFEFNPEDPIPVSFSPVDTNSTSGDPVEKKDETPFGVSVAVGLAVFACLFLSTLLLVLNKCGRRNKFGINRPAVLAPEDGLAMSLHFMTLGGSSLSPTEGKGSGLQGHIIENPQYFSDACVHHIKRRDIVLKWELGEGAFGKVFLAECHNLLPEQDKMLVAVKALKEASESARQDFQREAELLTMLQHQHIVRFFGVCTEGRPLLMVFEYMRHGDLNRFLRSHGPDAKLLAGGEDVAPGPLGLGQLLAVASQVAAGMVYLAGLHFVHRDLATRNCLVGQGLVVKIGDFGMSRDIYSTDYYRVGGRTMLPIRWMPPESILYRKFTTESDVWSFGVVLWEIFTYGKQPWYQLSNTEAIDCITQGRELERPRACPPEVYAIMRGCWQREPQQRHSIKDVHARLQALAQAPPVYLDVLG

[27] = target: PLK1 (Homo sapiens, UniProt P53350); design: Dundee MRC-PPU Express kinase screen, remaining kinase activity; settings: read-out: Mean % of remaining kinase activity (±sd)
Sequence of PLK1 (P53350 whole entry): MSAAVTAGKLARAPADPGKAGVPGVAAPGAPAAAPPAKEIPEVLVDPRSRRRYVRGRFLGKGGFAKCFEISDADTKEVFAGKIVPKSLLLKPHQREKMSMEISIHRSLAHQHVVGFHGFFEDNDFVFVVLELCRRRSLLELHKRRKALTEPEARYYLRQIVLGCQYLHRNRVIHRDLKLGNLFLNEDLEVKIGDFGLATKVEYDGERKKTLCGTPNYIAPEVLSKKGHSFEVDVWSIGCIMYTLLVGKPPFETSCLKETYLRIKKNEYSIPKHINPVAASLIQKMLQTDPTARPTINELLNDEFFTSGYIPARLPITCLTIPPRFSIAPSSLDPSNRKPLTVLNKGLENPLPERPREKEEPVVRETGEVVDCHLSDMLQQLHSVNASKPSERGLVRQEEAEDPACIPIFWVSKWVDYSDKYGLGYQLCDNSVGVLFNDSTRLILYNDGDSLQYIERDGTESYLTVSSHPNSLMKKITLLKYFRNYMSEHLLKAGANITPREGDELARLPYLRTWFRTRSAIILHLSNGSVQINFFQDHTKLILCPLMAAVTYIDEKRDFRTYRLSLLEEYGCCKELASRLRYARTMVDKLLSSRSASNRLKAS

Cc1ncsc1-c1ccc(CNC(=O)[C@@H]2C[C@@H](O)CN2C(=O)[C@@H](NC(=O)C2(C#N)CC2)C(C)(C)C)cc1 [VH298]
remaining binding at 50 µM [1]: 73% | remaining binding at 50 µM [2]: 117% | remaining binding at 50 µM [3]: 111% | remaining binding at 50 µM [4]: 92% | remaining binding at 50 µM [5]: 82% | remaining binding at 50 µM [6]: 83% | remaining binding at 50 µM [7]: 84% | remaining activity at 50 µM [8]: 85% | remaining activity at 50 µM [9]: 95% | remaining activity at 50 µM [10]: 94% | remaining activity at 50 µM [11]: 112% | remaining activity at 50 µM [12]: 87% | remaining activity at 50 µM [13]: 108% | remaining activity at 50 µM [14]: 110% | remaining activity at 50 µM [15]: 92% | remaining activity at 50 µM [16]: 93% | remaining activity at 50 µM [17]: 103% | remaining activity at 50 µM [18]: 96% | remaining activity at 50 µM [19]: 98% | remaining activity at 50 µM [20]: 54% | remaining activity at 50 µM [21]: 105% | remaining activity at 50 µM [22]: 108% | remaining activity at 50 µM [23]: 99% | remaining activity at 50 µM [24]: 116% | remaining activity at 50 µM [25]: 101% | remaining activity at 50 µM [26]: 100% | remaining activity at 50 µM [27]: 100%

Reference: PMC5097156, “Potent and selective chemical probe of hypoxic signalling downstream of HIF-α hydroxylation via VHL inhibition” (Nature Communications, 2016)
